Data on six compounds can be found in the supplement of paper PMC12076712.

What all share (experiment): pIC50, kinobeads binding competition
Assay [1] concerns the target UniProt P45983. The gist of the method:
(§1)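 Live Jurkat cells were treated with nine compound concentrations (top 30 μM, 1:4 steps) or DMSO for 60 min at 37 °C before lysis. Alternatively, Jurkat lysate or a 1:1:1:1 HEK293/K-562/HepG2/placenta lysate mix was incubated with nine concentrations (top 30 μM, 1:5 steps) for 60 min at 4 °C. Kinobeads-bound proteins were digested and quantified by TMT10 LC-MS/MS. pIC50 came from logistic dose-response fits (R drc package) of fold changes versus DMSO, in biological duplicates.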

For assay [2], the target named is UniProt Q5VT25. The gist of the method:
as §1

Assay [3] deals with UniProt O75582. The gist of the method: as §1
UniProt O75582, sequence (O75582 whole entry, looked up): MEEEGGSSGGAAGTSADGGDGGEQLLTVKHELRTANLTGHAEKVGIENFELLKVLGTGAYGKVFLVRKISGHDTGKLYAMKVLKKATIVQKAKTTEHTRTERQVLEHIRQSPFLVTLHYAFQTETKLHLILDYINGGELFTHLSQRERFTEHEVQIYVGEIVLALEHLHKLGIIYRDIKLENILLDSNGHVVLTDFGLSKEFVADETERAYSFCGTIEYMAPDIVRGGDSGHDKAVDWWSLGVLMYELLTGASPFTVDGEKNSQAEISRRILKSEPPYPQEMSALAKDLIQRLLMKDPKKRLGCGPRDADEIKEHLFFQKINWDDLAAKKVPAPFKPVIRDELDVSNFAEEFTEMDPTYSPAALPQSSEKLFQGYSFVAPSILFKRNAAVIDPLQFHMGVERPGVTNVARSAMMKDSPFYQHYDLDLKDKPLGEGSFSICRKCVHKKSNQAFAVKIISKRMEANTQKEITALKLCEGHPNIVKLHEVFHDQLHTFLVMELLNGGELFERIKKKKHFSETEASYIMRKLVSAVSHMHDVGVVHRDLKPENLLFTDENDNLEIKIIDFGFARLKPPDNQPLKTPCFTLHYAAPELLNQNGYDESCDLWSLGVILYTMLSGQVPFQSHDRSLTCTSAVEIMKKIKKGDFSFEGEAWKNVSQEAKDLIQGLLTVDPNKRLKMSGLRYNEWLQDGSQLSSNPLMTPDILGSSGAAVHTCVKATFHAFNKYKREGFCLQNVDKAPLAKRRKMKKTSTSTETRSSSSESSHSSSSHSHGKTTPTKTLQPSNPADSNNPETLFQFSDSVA
Assay [4] has as its target T1, UniProt Q9UEE5.
T1 sequence (whole entry): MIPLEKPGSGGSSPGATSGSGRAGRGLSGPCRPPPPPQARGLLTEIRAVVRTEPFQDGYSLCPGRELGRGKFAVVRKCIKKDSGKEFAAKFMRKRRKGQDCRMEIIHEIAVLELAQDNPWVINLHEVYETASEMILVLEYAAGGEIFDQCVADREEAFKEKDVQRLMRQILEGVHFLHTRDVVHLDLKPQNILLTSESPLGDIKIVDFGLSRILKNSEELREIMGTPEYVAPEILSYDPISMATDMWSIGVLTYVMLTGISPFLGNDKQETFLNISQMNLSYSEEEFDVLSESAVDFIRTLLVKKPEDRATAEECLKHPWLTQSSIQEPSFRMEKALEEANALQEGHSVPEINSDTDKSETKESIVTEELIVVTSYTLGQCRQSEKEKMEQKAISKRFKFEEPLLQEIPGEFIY
The method in brief: as §1

Assay [5] deals with CDK9 (UniProt P50750). The method in brief: as §1
CDK9, sequence (P50750 whole entry): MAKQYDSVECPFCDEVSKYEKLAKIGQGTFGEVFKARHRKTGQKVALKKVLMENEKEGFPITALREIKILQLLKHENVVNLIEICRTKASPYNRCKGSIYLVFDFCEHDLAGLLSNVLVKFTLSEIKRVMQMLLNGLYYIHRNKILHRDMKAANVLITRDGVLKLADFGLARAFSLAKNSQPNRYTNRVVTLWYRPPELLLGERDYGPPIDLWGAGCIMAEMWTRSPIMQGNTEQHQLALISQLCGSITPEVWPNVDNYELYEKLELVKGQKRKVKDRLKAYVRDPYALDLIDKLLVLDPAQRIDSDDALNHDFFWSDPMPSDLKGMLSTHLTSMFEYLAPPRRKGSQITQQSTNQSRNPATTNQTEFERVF
Assay [6] addresses LCK (UniProt P06239). The gist of the method:
as §1

Assay [7] deals with T2, LATS1 (UniProt O95835).
T2 sequence (whole entry): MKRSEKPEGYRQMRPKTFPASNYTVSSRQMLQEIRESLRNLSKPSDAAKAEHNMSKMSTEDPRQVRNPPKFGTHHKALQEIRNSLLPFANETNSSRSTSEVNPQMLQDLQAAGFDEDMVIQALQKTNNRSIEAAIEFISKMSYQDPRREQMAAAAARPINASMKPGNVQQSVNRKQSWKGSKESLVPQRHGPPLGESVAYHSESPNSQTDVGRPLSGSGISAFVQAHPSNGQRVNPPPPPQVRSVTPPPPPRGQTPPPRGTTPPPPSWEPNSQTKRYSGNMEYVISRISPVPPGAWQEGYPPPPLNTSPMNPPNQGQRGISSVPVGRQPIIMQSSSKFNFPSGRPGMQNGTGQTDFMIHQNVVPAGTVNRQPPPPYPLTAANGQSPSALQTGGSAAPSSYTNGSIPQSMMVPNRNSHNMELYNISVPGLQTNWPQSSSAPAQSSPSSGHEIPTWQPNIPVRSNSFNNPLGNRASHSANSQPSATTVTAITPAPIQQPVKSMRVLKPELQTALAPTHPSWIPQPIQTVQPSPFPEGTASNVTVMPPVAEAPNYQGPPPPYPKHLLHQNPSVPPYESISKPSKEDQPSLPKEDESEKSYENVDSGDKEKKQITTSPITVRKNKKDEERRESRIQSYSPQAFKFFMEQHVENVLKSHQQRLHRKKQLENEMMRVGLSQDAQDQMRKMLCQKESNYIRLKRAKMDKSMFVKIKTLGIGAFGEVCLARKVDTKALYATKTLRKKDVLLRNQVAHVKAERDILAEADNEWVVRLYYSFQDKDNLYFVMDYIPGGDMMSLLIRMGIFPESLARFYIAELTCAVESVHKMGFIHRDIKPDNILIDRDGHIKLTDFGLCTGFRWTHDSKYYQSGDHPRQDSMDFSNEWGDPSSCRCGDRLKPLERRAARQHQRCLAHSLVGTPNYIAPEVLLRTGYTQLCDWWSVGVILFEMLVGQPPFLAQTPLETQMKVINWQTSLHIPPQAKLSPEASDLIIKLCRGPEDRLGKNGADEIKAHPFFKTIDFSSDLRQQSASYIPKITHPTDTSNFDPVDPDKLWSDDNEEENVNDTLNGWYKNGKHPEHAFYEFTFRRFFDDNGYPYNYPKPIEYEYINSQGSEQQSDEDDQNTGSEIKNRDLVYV
The gist of the method: as §1

The target in assay [8] is ABL2 (UniProt P42684). The method in brief: as §1
ABL2, sequence (P42684 whole entry): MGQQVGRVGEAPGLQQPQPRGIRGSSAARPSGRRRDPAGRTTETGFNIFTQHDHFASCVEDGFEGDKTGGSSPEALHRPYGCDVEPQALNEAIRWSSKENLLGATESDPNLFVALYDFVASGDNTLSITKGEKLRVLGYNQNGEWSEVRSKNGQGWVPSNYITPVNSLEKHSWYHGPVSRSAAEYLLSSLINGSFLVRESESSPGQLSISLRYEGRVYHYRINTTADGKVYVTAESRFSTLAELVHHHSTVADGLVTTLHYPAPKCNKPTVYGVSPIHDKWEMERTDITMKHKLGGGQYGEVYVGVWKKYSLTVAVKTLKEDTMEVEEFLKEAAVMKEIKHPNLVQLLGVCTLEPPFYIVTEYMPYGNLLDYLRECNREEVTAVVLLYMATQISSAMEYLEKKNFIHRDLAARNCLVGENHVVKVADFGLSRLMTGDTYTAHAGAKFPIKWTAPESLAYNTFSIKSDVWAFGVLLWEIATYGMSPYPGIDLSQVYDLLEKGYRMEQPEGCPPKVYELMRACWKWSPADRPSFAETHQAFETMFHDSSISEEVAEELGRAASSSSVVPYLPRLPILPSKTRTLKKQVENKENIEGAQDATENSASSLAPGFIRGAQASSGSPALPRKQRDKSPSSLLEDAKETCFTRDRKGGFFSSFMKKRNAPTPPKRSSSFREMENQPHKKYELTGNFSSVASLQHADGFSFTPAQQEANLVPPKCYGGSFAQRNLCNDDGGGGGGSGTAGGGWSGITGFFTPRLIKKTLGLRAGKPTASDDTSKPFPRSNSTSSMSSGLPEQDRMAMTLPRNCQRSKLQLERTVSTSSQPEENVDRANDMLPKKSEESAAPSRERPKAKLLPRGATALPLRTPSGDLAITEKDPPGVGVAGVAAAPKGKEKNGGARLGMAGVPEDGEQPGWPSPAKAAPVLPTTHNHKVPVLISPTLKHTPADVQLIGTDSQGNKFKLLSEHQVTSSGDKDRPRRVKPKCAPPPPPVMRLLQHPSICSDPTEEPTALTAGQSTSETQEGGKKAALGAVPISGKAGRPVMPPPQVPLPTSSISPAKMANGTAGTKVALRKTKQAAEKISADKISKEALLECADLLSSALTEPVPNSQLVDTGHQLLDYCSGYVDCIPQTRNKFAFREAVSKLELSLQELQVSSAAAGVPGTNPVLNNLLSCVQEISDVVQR
Assay [9] addresses UniProt Q9Y5S2. As to conditions: cell material: Lysate mix. The gist of the method: as §1
The target of assay [10] is T3, PRKX (UniProt P51817).
T3 sequence (whole entry): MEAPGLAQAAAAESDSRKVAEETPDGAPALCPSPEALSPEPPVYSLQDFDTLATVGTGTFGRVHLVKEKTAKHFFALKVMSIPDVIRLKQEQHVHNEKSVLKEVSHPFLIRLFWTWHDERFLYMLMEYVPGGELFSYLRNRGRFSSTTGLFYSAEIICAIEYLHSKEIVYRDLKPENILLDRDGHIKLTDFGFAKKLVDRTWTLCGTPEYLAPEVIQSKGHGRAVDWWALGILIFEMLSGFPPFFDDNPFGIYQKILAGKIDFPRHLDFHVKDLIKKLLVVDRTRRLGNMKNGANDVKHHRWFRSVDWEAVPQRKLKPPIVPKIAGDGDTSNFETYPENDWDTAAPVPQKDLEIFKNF
The gist of the method:
as §1

UniProt Q9Y5S2, sequence (Q9Y5S2 whole entry): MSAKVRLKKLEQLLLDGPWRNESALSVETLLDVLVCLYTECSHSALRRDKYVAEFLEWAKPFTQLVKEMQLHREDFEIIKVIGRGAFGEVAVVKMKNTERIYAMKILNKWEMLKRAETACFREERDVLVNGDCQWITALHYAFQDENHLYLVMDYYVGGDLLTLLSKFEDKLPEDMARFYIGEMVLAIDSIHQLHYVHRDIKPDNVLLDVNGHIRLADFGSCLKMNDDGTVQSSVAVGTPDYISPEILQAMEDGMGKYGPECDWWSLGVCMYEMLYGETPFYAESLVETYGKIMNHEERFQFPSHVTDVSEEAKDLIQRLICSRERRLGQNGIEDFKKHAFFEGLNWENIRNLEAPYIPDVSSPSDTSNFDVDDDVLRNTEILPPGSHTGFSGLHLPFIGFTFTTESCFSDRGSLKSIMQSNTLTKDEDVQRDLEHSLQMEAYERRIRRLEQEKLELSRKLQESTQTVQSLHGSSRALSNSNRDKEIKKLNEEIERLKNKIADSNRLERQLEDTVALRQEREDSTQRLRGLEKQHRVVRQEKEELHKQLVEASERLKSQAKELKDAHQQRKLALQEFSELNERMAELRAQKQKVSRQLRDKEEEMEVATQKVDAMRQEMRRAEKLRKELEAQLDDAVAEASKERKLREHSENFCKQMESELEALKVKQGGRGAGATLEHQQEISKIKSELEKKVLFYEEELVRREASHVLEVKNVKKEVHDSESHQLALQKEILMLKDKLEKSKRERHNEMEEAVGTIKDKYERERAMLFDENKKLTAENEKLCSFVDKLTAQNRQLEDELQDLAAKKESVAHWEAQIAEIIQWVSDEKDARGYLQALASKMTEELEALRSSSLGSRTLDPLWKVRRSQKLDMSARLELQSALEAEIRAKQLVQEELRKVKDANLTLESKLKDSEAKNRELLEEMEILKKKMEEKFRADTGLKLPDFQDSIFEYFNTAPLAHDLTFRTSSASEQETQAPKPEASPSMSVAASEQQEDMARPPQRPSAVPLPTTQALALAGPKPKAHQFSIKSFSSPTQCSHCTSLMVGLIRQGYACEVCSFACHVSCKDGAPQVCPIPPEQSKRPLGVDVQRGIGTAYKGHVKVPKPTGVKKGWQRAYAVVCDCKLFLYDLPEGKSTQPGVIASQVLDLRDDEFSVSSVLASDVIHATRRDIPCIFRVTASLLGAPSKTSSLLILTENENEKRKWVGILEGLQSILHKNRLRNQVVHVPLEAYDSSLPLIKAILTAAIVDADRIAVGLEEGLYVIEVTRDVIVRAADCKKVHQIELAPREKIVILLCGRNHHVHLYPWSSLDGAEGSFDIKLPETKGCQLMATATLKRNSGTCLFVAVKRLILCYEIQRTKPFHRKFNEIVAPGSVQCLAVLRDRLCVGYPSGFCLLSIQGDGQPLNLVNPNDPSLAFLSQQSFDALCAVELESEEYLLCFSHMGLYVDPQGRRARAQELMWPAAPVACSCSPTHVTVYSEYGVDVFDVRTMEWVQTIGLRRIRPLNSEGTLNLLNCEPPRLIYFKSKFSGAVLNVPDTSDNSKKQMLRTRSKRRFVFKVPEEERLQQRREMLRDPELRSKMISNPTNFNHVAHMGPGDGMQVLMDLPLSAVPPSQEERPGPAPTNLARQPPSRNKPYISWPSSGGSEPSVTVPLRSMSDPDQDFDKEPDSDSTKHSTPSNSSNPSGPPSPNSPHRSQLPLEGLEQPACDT
LCK, sequence (P06239 whole entry, looked up): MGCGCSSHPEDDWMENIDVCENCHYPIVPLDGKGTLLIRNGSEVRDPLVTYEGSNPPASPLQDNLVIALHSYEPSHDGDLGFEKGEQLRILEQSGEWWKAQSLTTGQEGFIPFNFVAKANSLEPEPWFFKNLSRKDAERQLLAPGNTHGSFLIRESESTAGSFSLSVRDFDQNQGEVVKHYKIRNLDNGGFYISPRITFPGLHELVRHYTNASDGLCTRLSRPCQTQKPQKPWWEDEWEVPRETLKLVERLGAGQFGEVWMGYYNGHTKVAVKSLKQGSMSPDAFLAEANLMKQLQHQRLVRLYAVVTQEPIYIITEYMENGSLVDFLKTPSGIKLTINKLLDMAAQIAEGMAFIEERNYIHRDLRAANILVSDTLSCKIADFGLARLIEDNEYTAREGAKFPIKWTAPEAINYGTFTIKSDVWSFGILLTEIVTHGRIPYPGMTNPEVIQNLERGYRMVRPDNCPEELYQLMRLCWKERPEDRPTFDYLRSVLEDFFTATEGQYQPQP
UniProt P45983, sequence (P45983 whole entry): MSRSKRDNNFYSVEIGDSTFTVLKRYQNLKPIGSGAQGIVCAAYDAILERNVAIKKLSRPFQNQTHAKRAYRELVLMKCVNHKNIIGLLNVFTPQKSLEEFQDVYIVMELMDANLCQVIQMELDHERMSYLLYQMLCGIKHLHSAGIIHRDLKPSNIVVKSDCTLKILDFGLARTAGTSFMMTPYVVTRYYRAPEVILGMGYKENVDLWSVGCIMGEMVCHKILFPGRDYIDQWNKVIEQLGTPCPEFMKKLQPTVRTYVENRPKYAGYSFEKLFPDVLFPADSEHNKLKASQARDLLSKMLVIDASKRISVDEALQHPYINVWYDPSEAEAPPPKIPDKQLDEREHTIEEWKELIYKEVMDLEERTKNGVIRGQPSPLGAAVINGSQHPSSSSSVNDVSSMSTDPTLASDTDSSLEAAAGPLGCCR

The pIC50 is −log10 of the IC50, conventionally taken in molar units. Low values mean a high IC50, high ones a low IC50. For the compound `Cc1cc(Nc2cc(C(=O)NCCNC(=O)OC3CC/C=C/CCC3)nc(N3CCN(Cc4ccc(S(=O)(=O)F)cc4)CC3)n2)n[nH]1` (stereo not drawn), the pIC50 in [1] (cell material: Lysate mix), in [2] (cell material: Lysate mix), in [3] (cell material: Lysate mix), in assay [4] (cell material: Lysate mix), in assay [5] (cell material: Lysate mix) and in assay [6] (cell material: Lysate mix) was below 4.52 in each case. Besides, the pIC50 in assay [7] (cell material: Lysate mix), in assay [8] (cell material: Lysate mix), in [9] and in assay [10] (cell material: Lysate mix) was below 4.52 throughout.

With `C#CCNC(=O)c1cc(Nc2cc(C3CC3)[nH]n2)nc(N2CCN(Cc3ccc(S(=O)(=O)F)cc3)CC2)n1`, the pIC50 in assay [1] (cell material: Jurkat cells) was 5.34; in assay [1] (cell material: Jurkat lysate) it was below 4.52; in [1] (cell material: Lysate mix) it was 4.72; in [2] (cell material: Jurkat cells), 5.28; in [2] (cell material: Jurkat lysate), below 4.52; in [2] (cell material: Lysate mix), below 4.52. In addition, the pIC50 in assay [3] (cell material: Jurkat cells) is 6; in assay [3] (cell material: Jurkat lysate), 4.7; in assay [3] (cell material: Lysate mix), 5.6; in [4] (cell material: Jurkat cells) it was 5.42; in assay [4] (cell material: Jurkat lysate), below 4.52; in [4] (cell material: Lysate mix), below 4.52. Further, the pIC50 in assay [5] (cell material: Jurkat cells) was found to be 6.24; in [5] (cell material: Jurkat lysate), 5.81; in [5] (cell material: Lysate mix), 6.16; in assay [6] (cell material: Jurkat cells) it was 6.47; in assay [6] (cell material: Jurkat lysate), 5.64; in [6] (cell material: Lysate mix), 6.07. Besides, the pIC50 came to 6.2 in assay [7] (cell material: Jurkat cells); 4.7 in assay [7] (cell material: Jurkat lysate); 5.56 in assay [7] (cell material: Lysate mix); 5.87 in assay [8] (cell material: Jurkat cells); 4.65 in assay [8] (cell material: Jurkat lysate); 5.39 in [8] (cell material: Lysate mix). Besides, the pIC50 in [9] was below 4.52; in [10] (cell material: Jurkat cells) it was 5.76; in assay [10] (cell material: Jurkat lysate) it was below 4.52; in [10] (cell material: Lysate mix) it was 5.26.

Consider `CCNC(=O)c1cc(Nc2cc(C3CC3)[nH]n2)nc(N2CCN(Cc3ccc(S(=O)(=O)F)cc3)CC2)n1`, for which the pIC50 in assay [1] (cell material: Lysate mix) was 4.65; in assay [2] (cell material: Lysate mix) it was below 4.52; in [3] (cell material: Lysate mix), 5.35; in [4] (cell material: Lysate mix), below 4.52; in [5] (cell material: Lysate mix), 4.73; in assay [6] (cell material: Lysate mix) it was 5.89. The pIC50 in assay [7] (cell material: Lysate mix) was 5.3; in assay [8] (cell material: Lysate mix), 5.35; in assay [9], below 4.52; in assay [10] (cell material: Lysate mix) it was 5.

Take `C#CCNC(=O)c1cc(Nc2cc(C)[nH]n2)nc(N2CCN(Cc3ccc(S(=O)(=O)F)cc3)CC2)n1`: the pIC50 in [1] (cell material: Lysate mix) was 4.6; in [2] (cell material: Lysate mix), below 4.52; in assay [3] (cell material: Lysate mix), 5.11; in [4] (cell material: Lysate mix) it was below 4.52; in assay [5] (cell material: Lysate mix), 4.84; in assay [6] (cell material: Lysate mix) it was 5.66. For the same compound, the pIC50 in assay [7] (cell material: Lysate mix) is 4.65; in assay [8] (cell material: Lysate mix) it was 4.64; in assay [9], below 4.52; in [10] (cell material: Lysate mix) it was below 4.52.

On to `O=C(NCCNC(=O)c1cc(Nc2cc(C3CC3)[nH]n2)nc(N2CCN(Cc3ccc(S(=O)(=O)F)cc3)CC2)n1)OC1CC/C=C/CCC1` (stereo not drawn), for which the pIC50 in assay [1] (cell material: Jurkat cells) was 4.88; in assay [1] (cell material: Jurkat lysate) it was below 4.52; in assay [1] (cell material: Lysate mix), below 4.52; in assay [2] (cell material: Jurkat cells), below 4.52; in [2] (cell material: Jurkat lysate), below 4.52; in [2] (cell material: Lysate mix), below 4.52. The pIC50 in assay [3] (cell material: Jurkat cells) was 5.6; in assay [3] (cell material: Jurkat lysate) it was below 4.52; in assay [3] (cell material: Lysate mix), below 4.52; in assay [4] (cell material: Jurkat lysate) it was below 4.52; in [4] (cell material: Lysate mix) it was below 4.52; in assay [5] (cell material: Jurkat lysate), below 4.52. The pIC50 was below 4.52 in assay [5] (cell material: Lysate mix); 5.67 in [6] (cell material: Jurkat cells); below 4.52 in [6] (cell material: Jurkat lysate); 5.78 in assay [7] (cell material: Jurkat cells); below 4.52 in assay [7] (cell material: Jurkat lysate); below 4.52 in [7] (cell material: Lysate mix). The pIC50 in [8] (cell material: Jurkat cells) was 5; in [8] (cell material: Jurkat lysate), below 4.52; in [8] (cell material: Lysate mix), below 4.52; in [9], below 4.52; in assay [10] (cell material: Jurkat cells), 5.28; in assay [10] (cell material: Jurkat lysate) it was below 4.52. In assay [10] (cell material: Lysate mix), this compound registered a pIC50 below 4.52.

For `CCNC(=O)c1cc(Nc2cc(C)[nH]n2)nc(N2CCN(Cc3ccc(S(=O)(=O)F)cc3)CC2)n1`, the pIC50 in assay [1] (cell material: Lysate mix) is 4.64; in assay [2] (cell material: Lysate mix) it was below 4.52; in [3] (cell material: Lysate mix), 4.83; in assay [4] (cell material: Lysate mix) it was below 4.52; in assay [5] (cell material: Lysate mix), below 4.52; in assay [6] (cell material: Lysate mix) it was 5.72. For the same compound, the pIC50 is below 4.52 in assay [7] (cell material: Lysate mix), 4.81 in assay [8] (cell material: Lysate mix), below 4.52 in assay [9] and below 4.52 in [10] (cell material: Lysate mix).
